Measurements as given in patent publication US8791123B2, “Substituted pyrazolo[1,5-a]pyrimidine compounds as Trk kinase inhibitors” (Array Biopharma, Inc., priority 2009, dated 2014).
pIC50: −log10 of the molar value. Where two headings read alike, the source gives them in different places.

Legend:
Human Jak2 kinase domain = Human Jak2 kinase domain (Homo sapiens (Human), UniProt O60674); experiment: Jak2 Inhibition Assay (Omnia kinase assay); assay type: biochemical; details: read-out: Jak2 Enzyme IC50
Sequence of Human Jak2 kinase domain (O60674 808-1132): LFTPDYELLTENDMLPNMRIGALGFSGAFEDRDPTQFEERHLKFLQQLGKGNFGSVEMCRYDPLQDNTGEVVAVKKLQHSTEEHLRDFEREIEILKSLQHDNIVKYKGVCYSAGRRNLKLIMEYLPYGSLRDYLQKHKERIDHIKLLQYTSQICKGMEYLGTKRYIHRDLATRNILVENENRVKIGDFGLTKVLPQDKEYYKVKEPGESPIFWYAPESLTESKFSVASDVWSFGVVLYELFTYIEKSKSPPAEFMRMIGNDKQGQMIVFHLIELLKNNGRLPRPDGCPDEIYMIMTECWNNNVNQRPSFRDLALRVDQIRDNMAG

[1] = target: TrkA (histidine-tagged recombinant human TrkA, cytoplasmic domain) (Homo sapiens (Human), UniProt P04629); experiment: TrkA ELISA Assay; assay type: biochemical; details: Table 1; ELISA, 500 μM ATP; read-out: TrkA Enzyme IC50
Sequence of TrkA (histidine-tagged recombinant human TrkA, cytoplasmic domain) (P04629 440-796): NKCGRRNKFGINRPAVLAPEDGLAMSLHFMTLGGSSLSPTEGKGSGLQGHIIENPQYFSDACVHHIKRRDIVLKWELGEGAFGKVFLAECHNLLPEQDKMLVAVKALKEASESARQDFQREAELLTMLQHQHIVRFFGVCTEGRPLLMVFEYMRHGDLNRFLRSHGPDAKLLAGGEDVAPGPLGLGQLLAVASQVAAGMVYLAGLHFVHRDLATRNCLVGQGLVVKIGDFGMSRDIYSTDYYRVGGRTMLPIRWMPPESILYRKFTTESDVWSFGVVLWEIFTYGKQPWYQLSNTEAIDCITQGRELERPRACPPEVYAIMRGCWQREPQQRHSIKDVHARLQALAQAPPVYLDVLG
In short: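 ELISA read-out: a peroxidase-linked anti-phosphotyrosine antibody (PY20, 0.2 μg/mL) with TMB substrate, absorbance at 450 nm after acid stop. The plate-bound substrate was poly(Glu,Ala,Tyr; 6:3:1) at 0.025 mg/mL, phosphorylated by the recombinant His-tagged human TrkA cytoplasmic domain in the presence of inhibitors.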

[2] = Table 1, 500 μM ATP, >1000 nM when >50% inhibition not observed at 1000 nM

NC(=O)c1cnn2ccc(N3CCC[C@@H]3c3cc(F)ccc3OCCN3CCOCC3)nc12 [Example 86, (R)-5-(2-(5-fluoro-2-(2-morpholinoethoxy)phenyl)pyrrolidin-1-yl)pyrazolo[1,5-a]pyrimidine-3-carboxamide]
pIC50 (Human Jak2 kinase domain; [2]): < 6.00 | pIC50 [1]: 7.57

CC(C)(O)CNC(=O)c1cnn2ccc(N3CCC[C@@H]3c3cncc(F)c3)nc12 [Example 111, (R)-5-(2-(5-fluoropyridin-3-yl)pyrrolidin-1-yl)-N-(2-hydroxy-2-methylpropyl)pyrazolo[1,5-a]pyrimidine-3-carboxamide]
pIC50 (Human Jak2 kinase domain; [2]): < 6.00 | pIC50 [1]: 7.42

CC(C)(C)NC(=O)c1cnn2ccc(N3CCC[C@@H]3c3cccc(F)c3)nc12 [Example 36, (R)—N-tert-butyl-5-(2-(3-fluorophenyl)pyrrolidin-1-yl)pyrazolo[1,5-a]pyrimidine-3-carboxamide]
pIC50 (Human Jak2 kinase domain; [2]): < 6.00 | pIC50 [1]: 8.68

COc1ncc(F)cc1[C@H]1CCCN1c1ccn2ncc(C(=O)NCC(O)CO)c2n1 (stereo partly drawn) [Example 149, N-(2,3-dihydroxypropyl)-5-((R)-2-(5-fluoro-2-methoxypyridin-3-yl)pyrrolidin-1-yl)pyrazolo[1,5-a]pyrimidine-3-carboxamide]
pIC50 (Human Jak2 kinase domain; [2]): < 6.00 | pIC50 [1]: 8.21

O=C(NC1(CO)CC1)c1cnn2ccc(N3CCC[C@@H]3c3cncc(F)c3)nc12 [Example 107, (R)-5-(2-(5-fluoropyridin-3-yl)pyrrolidin-1-yl)-N-(1-(hydroxymethyl)cyclopropyl)pyrazolo[1,5-a]pyrimidine-3-carboxamide]
pIC50 (Human Jak2 kinase domain; [2]): < 6.00 | pIC50 [1]: 7.79

CC(C)(CF)NC(=O)c1cnn2ccc(N3CCC[C@@H]3c3cc(F)ccc3F)nc12 [Example 40, (R)-5-(2-(2,5-difluorophenyl)pyrrolidin-1-yl)-N-(1-fluoro-2-methylpropan-2-yl)pyrazolo[1,5-a]pyrimidine-3-carboxamide]
pIC50 (Human Jak2 kinase domain; [2]): < 6.00 | pIC50 [1]: 9.10

CC(C)NC(=O)c1cnn2ccc(N3C[C@@H](O)C[C@@H]3c3cccc(F)c3)nc12 [Example 217, 5-((2R,4S)-2-(3-fluorophenyl)-4-hydroxypyrrolidin-1-yl)-N-isopropylpyrazolo[1,5-a]pyrimidine-3-carboxamide]
pIC50 (Human Jak2 kinase domain; [2]): 6.26 | pIC50 [1]: 8.24

COc1ncc(F)cc1[C@H]1CCCN1c1ccn2ncc(C(=O)N3CC(O)C3)c2n1 [Example 139, (R)-(5-(2-(5-fluoro-2-methoxypyridin-3-yl)pyrrolidin-1-yl)pyrazolo[1,5-a]pyrimidin-3-yl)(3-hydroxyazetidin-1-yl)methanone]
pIC50 (Human Jak2 kinase domain; [2]): < 6.00 | pIC50 [1]: 7.49

O=C(NC[C@H](O)CO)c1cnn2ccc(N3CCC[C@@H]3c3cc(F)ccc3C(F)(F)F)nc12 [Example 62, N—((S)-2,3-dihydroxypropyl)-5-((R)-2-(5-fluoro-2-(trifluoromethyl)phenyl)pyrrolidin-1-yl)pyrazolo[1,5-a]pyrimidine-3-carboxamide]
pIC50 (Human Jak2 kinase domain; [2]): < 6.00 | pIC50 [1]: 8.60

COc1ncc(F)cc1[C@H]1CCCN1c1ccn2ncc(C(=O)NC3CC3)c2n1 [Example 79, (R)—N-cyclopropyl-5-(2-(5-fluoro-2-methoxypyridin-3-yl)pyrrolidin-1-yl)pyrazolo[1,5-a]pyrimidine-3-carboxamide]
pIC50 (Human Jak2 kinase domain): 6.16 | pIC50 [1]: 8.89

O=C(N[C@@H]1CCCC[C@H]1O)c1cnn2ccc(N3CCC[C@@H]3c3cncc(F)c3)nc12 [Example 136, 5-((R)-2-(5-fluoropyridin-3-yl)pyrrolidin-1-yl)-N-((1R,2R)-2-hydroxycyclohexyl)pyrazolo[1,5-a]pyrimidine-3-carboxamide]
pIC50 (Human Jak2 kinase domain; [2]): < 6.00 | pIC50 [1]: 7.58

O=C(NC1CC1)c1cnn2ccc(N3CCC[C@@H]3c3cc(F)ccc3OCCN3CCOCC3)nc12 [Example 87, (R)—N-cyclopropyl-5-(2-(5-fluoro-2-(2-morpholinoethoxy)phenyl)pyrrolidin-1-yl)pyrazolo[1,5-a]pyrimidine-3-carboxamide]
pIC50 (Human Jak2 kinase domain; [2]): < 6.00 | pIC50 [1]: 7.79

CCc1ncc(F)cc1[C@H]1CCCN1c1ccn2ncc(C(=O)N[C@H]3CC[C@H](O)C3)c2n1 [Example 200, 5-((R)-2-(2-ethyl-5-fluoropyridin-3-yl)pyrrolidin-1-yl)-N-((1S,3S)-3-hydroxycyclopentyl)pyrazolo[1,5-a]pyrimidine-3-carboxamide]
pIC50 (Human Jak2 kinase domain; [2]): < 6.00 | pIC50 [1]: 7.90

O=C(NCCN1CCOCC1)c1cnn2ccc(N3CCC[C@@H]3c3cc(F)ccc3F)nc12 [Example 4, (R)-5-(2-(2,5-difluorophenyl)pyrrolidin-1-yl)-N-(2-morpholinoethyl)pyrazolo[1,5-a]pyrimidine-3-carboxamide]
pIC50 (Human Jak2 kinase domain; [2]): < 6.00 | pIC50 [1]: 9.02

O=C(NC1CC1)c1cnn2ccc(N3CCC[C@@H]3c3cc(F)cc(OCCN4CCOCC4)c3)nc12 [Example 85, (R)—N-cyclopropyl-5-(2-(3-fluoro-5-(2-morpholinoethoxy)phenyl)pyrrolidin-1-yl)pyrazolo[1,5-a]pyrimidine-3-carboxamide]
pIC50 (Human Jak2 kinase domain; [2]): < 6.00 | pIC50 [1]: 8.03

COc1ncc(F)cc1[C@H]1CCCN1c1ccn2ncc(C(=O)NC(CO)CO)c2n1 [Example 160, (R)-N-(1,3-dihydroxypropan-2-yl)-5-(2-(5-fluoro-2-methoxypyridin-3-yl)pyrrolidin-1-yl)pyrazolo[1,5-a]pyrimidine-3-carboxamide]
pIC50 (Human Jak2 kinase domain; [2]): < 6.00 | pIC50 [1]: 7.59

CC(C)(C)NC(=O)c1cnn2ccc(N3CCC[C@@H]3c3cncc(F)c3)nc12 [Example 53, (R)—N-tert-butyl-5-(2-(5-fluoropyridin-3-yl)pyrrolidin-1-yl)pyrazolo[1,5-a]pyrimidine-3-carboxamide]
pIC50 (Human Jak2 kinase domain; [2]): < 6.00 | pIC50 [1]: 7.98

CC(C)(C)[C@@H](CO)NC(=O)c1cnn2ccc(N3CCC[C@@H]3c3cc(F)ccc3F)nc12 [Example 180, 5-((R)-2-(2,5-difluorophenyl)pyrrolidin-1-yl)-N-((S)-1-hydroxy-3,3-dimethylbutan-2-yl)pyrazolo[1,5-a]pyrimidine-3-carboxamide]
pIC50 (Human Jak2 kinase domain; [2]): < 6.00 | pIC50 [1]: 7.91

COc1ncc(F)cc1[C@H]1CCCN1c1ccn2ncc(C(=O)N[C@H]3CC[C@H](O)C3)c2n1 [Example 154, 5-((R)-2-(5-fluoro-2-methoxypyridin-3-yl)pyrrolidin-1-yl)-N-((1S,3S)-3-hydroxycyclopentyl)pyrazolo[1,5-a]pyrimidine-3-carboxamide]
pIC50 (Human Jak2 kinase domain; [2]): 6.28 | pIC50 [1]: 8.89

CC(C)(O)CNC(=O)c1cnn2ccc(N3CCC[C@@H]3c3cc(F)ccc3F)nc12 [Example 17, (R)-5-(2-(2,5-difluorophenyl)pyrrolidin-1-yl)-N-(2-hydroxy-2-methylpropyl)pyrazolo[1,5-a]pyrimidine-3-carboxamide]
pIC50 (Human Jak2 kinase domain; [2]): < 6.00 | pIC50 [1]: 8.67

CNC(=O)c1cnn2ccc(N3CCC[C@@H]3c3cc(F)cnc3C)nc12 [Example 186, (R)-5-(2-(5-fluoro-2-methylpyridin-3-yl)pyrrolidin-1-yl)-N-methylpyrazolo[1,5-a]pyrimidine-3-carboxamide]
pIC50 (Human Jak2 kinase domain; [2]): < 6.00 | pIC50 [1]: 7.24

C[C@@H](CO)NC(=O)c1cnn2ccc(N3CCC[C@@H]3c3cncc(F)c3)nc12 [Example 116, 5-((R)-2-(5-fluoropyridin-3-yl)pyrrolidin-1-yl)-N-((S)-1-hydroxypropan-2-yl)pyrazolo[1,5-a]pyrimidine-3-carboxamide]
pIC50 (Human Jak2 kinase domain; [2]): < 6.00 | pIC50 [1]: 7.58

O=C(NCCc1c[nH]cn1)c1cnn2ccc(N3CCC[C@@H]3c3cc(F)ccc3F)nc12 [Example 25, (R)—N-(2-(1H-imidazol-4-yl)ethyl)-5-(2-(2,5-difluorophenyl)pyrrolidin-1-yl)pyrazolo[1,5-a]pyrimidine-3-carboxamide]
pIC50 (Human Jak2 kinase domain; [2]): < 6.00 | pIC50 [1]: 9.40

C[C@H](O)CNC(=O)c1cnn2ccc(N3CCC[C@@H]3c3cncc(F)c3)nc12 [Example 109, 5-((R)-2-(5-fluoropyridin-3-yl)pyrrolidin-1-yl)-N-((S)-2-hydroxypropyl)pyrazolo[1,5-a]pyrimidine-3-carboxamide]
pIC50 (Human Jak2 kinase domain; [2]): < 6.00 | pIC50 [1]: 7.44

COCC(O)CNC(=O)c1cnn2ccc(N3CCCC3c3cncc(F)c3)nc12 [Example 119, 5-((R)-2-(5-fluoropyridin-3-yl)pyrrolidin-1-yl)-N-(2-hydroxy-3-methoxypropyl)pyrazolo[1,5-a]pyrimidine-3-carboxamide]
pIC50 (Human Jak2 kinase domain; [2]): < 6.00 | pIC50 [1]: 6.88
